Experimental data from ChEMBL document CHEMBL1201862, “PubChem BioAssay data set” (2004).
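Step 1: Grow cells in 96-well plates. Step 2: Expose to compound for 48 hours at 5 concentrations. Step 3: Interpolate endpoints linearly; if unreached, use highest concentration. GI50 = concentration required for 50% inhibition of growth.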 The source made the active and inactive calls. No stated cut-off is given here; in the data, active = GI50 up to about 1.1 µM and inactive = higher.

What was measured:
Experiment in all cases: NCI anticancer screen, dose series, 48 h
BT-549 = test system: BT-549
LOX IMVI = test system: LOX IMVI
KM12 = test system: KM12
MDA-MB-231 = test system: MDA-MB-231
HOP-92 = test system: HOP-92
SF-539 = test system: SF-539
Hs-578T = test system: Hs-578T
PC-3 = test system: PC-3
MCF7 = test system: MCF7
CAKI-1 = test system: CAKI-1
HCT-116 = test system: HCT-116
786-0 = test system: 786-0
Malme-3M = test system: Malme-3M
SF-268 = test system: SF-268
UACC-62 = test system: UACC-62
MOLT-4 = test system: MOLT-4
NCI/ADR-RES = test system: NCI/ADR-RES
HCC 2998 = test system: HCC 2998
U-251 = test system: U-251
SK-MEL-2 = test system: SK-MEL-2

Measured: GI50

c1ccc(CCCN2C3CCC2CN(CCOC(c2ccccc2)c2ccccc2)C3)cc1
inactive: BT-549 12.4 µM | LOX IMVI 12.1 µM | KM12 5.66 µM | MDA-MB-231 8.3 µM | HOP-92 12.5 µM | SF-539 8.39 µM | Hs-578T 13.9 µM | PC-3 6.43 µM | MCF7 12.6 µM | CAKI-1 11.3 µM | HCT-116 7.05 µM | 786-0 10 µM | Malme-3M 12.5 µM | SF-268 14 µM | UACC-62 12.9 µM | MOLT-4 8.43 µM | NCI/ADR-RES 8.17 µM | HCC 2998 5.21 µM | U-251 8.04 µM | SK-MEL-2 10.6 µM

CC1NC(C(=O)O)Cc2cc(O)c(O)cc21 (stereo not given)
inactive: BT-549 > 100 µM | LOX IMVI > 100 µM | KM12 > 100 µM | MDA-MB-231 > 100 µM | HOP-92 > 100 µM | SF-539 > 100 µM | Hs-578T > 100 µM | PC-3 > 100 µM | MCF7 > 100 µM | CAKI-1 > 100 µM | HCT-116 > 100 µM | 786-0 > 100 µM | Malme-3M > 100 µM | SF-268 > 100 µM | UACC-62 > 100 µM | MOLT-4 > 100 µM | NCI/ADR-RES > 100 µM | HCC 2998 > 100 µM | U-251 > 100 µM | SK-MEL-2 > 100 µM

C=C(CCC/C(C)=C/C=C/[C@]1(C)CCCc2ccoc21)CC(=O)O
inactive: BT-549 79.1 µM | LOX IMVI > 100 µM | KM12 > 100 µM | MDA-MB-231 > 100 µM | HOP-92 > 100 µM | SF-539 > 100 µM | Hs-578T 50.5 µM | PC-3 90.6 µM | MCF7 82.6 µM | CAKI-1 > 100 µM | HCT-116 60 µM | 786-0 > 100 µM | Malme-3M > 100 µM | SF-268 > 100 µM | UACC-62 75.3 µM | MOLT-4 38.7 µM | NCI/ADR-RES > 100 µM | HCC 2998 > 100 µM | U-251 68.4 µM | SK-MEL-2 > 100 µM

CCOc1ccc2c(c1)c(=O)c1c(NCCN(CC)CC)ccc3nnn2c31
inactive: BT-549 > 71.3 µM | LOX IMVI 11.4 µM | KM12 14 µM | MDA-MB-231 18.6 µM | HOP-92 29.2 µM | SF-539 9.08 µM | Hs-578T 57 µM | PC-3 18.8 µM | MCF7 12.3 µM | CAKI-1 20.7 µM | HCT-116 > 25.4 µM | 786-0 > 32.8 µM | Malme-3M 17.1 µM | SF-268 21.5 µM | UACC-62 > 100 µM | MOLT-4 3.34 µM | NCI/ADR-RES 12.3 µM | HCC 2998 > 33.6 µM | U-251 19.7 µM | SK-MEL-2 > 100 µM

O=c1c(Cc2cccc(Cc3c(O)oc4ccccc4c3=O)c2)c(O)oc2ccccc12
inactive: BT-549 > 100 µM | LOX IMVI > 100 µM | KM12 > 100 µM | MDA-MB-231 > 100 µM | HOP-92 > 100 µM | SF-539 > 100 µM | Hs-578T > 100 µM | PC-3 > 100 µM | MCF7 62.4 µM | CAKI-1 > 100 µM | HCT-116 > 100 µM | 786-0 > 100 µM | Malme-3M > 100 µM | SF-268 > 100 µM | UACC-62 > 100 µM | MOLT-4 > 100 µM | NCI/ADR-RES > 100 µM | HCC 2998 > 100 µM | U-251 > 100 µM | SK-MEL-2 > 100 µM
